The source of these data is US20090042883A1, “ANTITUMOR AGENT” (KYOWA HAKKOKOGYO CO., priority 2005, published 2009).

Common to all, as to assay type: cell-based
Data set [1] has as its system human T-cell lymphoma Karpas-299 cells. As to the kind of experiment: Growth inhibition test on human T-cell lymphoma Karpas-299 cells (WST-1, % viability). The settings on record: test compound 10 μmol/L, 72 hours, cells without test compound = 100%. As to the method: (§1) Five thousand cells of human T-cell lymphoma Karpas-299 were inoculated into each well of a 96-well microplate (manufactured by Nunc Corp.), and using RPMI medium (culture medium) containing 10% FCS, preculturing was performed in a 5% carbon dioxide incubator at 37° C. for 5 hours. A DMSO solution of each test compound prepared in a concentration of 10 mmol/L was diluted with the culture medium to a final concentration of 10 μmol/L, and the diluted solution was added to each well. The individual wells were further cultured in the 5% carbon dioxide incubator at 37° C. for 72 hours. After completion of the culturing, 10 μL of WST-1 labeled mixture (manufactured by Roche Diagnostic Corp.) was added to each well, and culturing was performed in the 5% carbon dioxide incubator at 37° C. for 2 hours. Using a microplate spectrophotometer (SpectraMax 340PC384; manufactured by Nihon Molecular Devices), the absorbance of each well was measured at 450 nm and 655 nm. The value obtained by subtracting the absorbance at 450 nm from the absorbance at 655 nm (absorbance difference) was calculated for each well. The value for cells not incorporated with a test compound was designated as 100%, and the value at a well not containing cells was designated as 0%. By comparing these values with the absorbance difference obtained at the well in which each test compound was added, the cell viability (% viability) after treatment with the test compound was calculated.

Data set [2] concerns human mammary cancer BT-474 cells. As to the kind of experiment: Growth inhibition test on human mammary cancer BT-474 cells (WST-1, % viability). The settings on record: test compound 10 μmol/L, cells without test compound = 100%. As to the method: as §1, with “Four thousand” for “Five thousand”, “human mammary cancer BT-474” for “human T-cell lymphoma Karpas-299”, “using Dulbecco's Modified Eagle's Medium (DMEM)” for “using RPMI medium”, “for 24” for “for 5”

Data set [3] has as its system human chronic myelocytic leukemia K562 cells. Description: Growth inhibition test on human chronic myelocytic leukemia K562 cells (WST-1, % viability). To be noted: test compound 10 μmol/L, 72 hours, cells without test compound = 100%. As for the experimental part:
One thousand cells of human chronic myelocytic leukemia K562 were inoculated into each well of a 96-well microplate (manufactured by Nunc Corp.), and using RPMI1640 medium (culture medium) containing 10% fetal calf serum (FCS), preculturing was performed in a 5% carbon dioxide incubator at 37° C. for 24 hours. A dimethyl sulfoxide (DMSO) solution of each test compound prepared in a concentration of 10 mmol/L was diluted with the culture medium to a final concentration of 10 μmol/L, and the diluted solution was added to each well. The individual wells were further cultured in the 5% carbon dioxide incubator at 37° C. for 72 hours. After completion of the culturing, 10 μL of WST-1 {4-[3-(4-Iodophenyl)-2-(4-nitrophenyl)-2H-5-tetrazolio]-1,3-benzene disulfonate} labeled mixture (manufactured by Roche Diagnostic Corp.) was added to each well, and culturing was performed in the 5% carbon dioxide incubator at 37° C. for 2 hours. Using a microplate spectrophotometer (SpectraMax 340PC384; manufactured by Nihon Molecular Devices), the absorbance of each well was measured at 450 nm and 655 nm. The value obtained by subtracting the absorbance at 450 nm from the absorbance at 655 nm (absorbance difference) was calculated for each well. The value for cells not incorporated with a test compound was designated as 100%, and the value at a well not containing cells was designated as 0%. By comparing these values with the absorbance difference obtained at the well in which each test compound was added, the cell viability (% viability) after treatment with the test compound was calculated.
(In general: Tetrazolium assays rely on reduction of a dye to a coloured formazan, in cell work by metabolically active cells.)

The test system of data set [4] is human lung cancer NCI-H596 cells. As to the kind of experiment: Growth inhibition test on human lung cancer NCI-H596 cells (WST-1, % viability). The settings on record: test compound 10 μmol/L, cells without test compound = 100%. As for the experimental part:
as §1, with “Four thousand” for “Five thousand”, “human lung cancer NCI-H596” for “human T-cell lymphoma Karpas-299”, “using RPMI1640” for “using RPMI”, “for 24” for “for 5”, “spectrophotometer (Model 550;” for “spectrophotometer (SpectraMax 340PC384;”, “by Bio-Rad),” for “by Nihon Molecular Devices),”

As to `CCc1c(O)cc(O)c(C(=O)c2ccc(OC)cc2)c1CC(=O)N(CCO)CCO` [Compound 13], the “Viability of tumor cells (% viability), Human T-cell lymphoma Karpas-299 cells” value in data set [1] worked out at 27%. The “Viability of tumor cells (% viability), Human mammary cancer BT-474 cells” value in data set [2] amounted to 12%. In data set [3], the “Viability of tumor cells (% viability), Human chronic myelocytic leukemia K562 cells” value was found to be 26%. Besides, the “Viability of tumor cells (% viability), Human lung cancer NCI-H596 cells” value in data set [4] was determined as 35%.
For `CCc1c(O)cc(O)c(C(=O)c2ccc(OC)cc2)c1CC(=O)N(C)Cc1cccnc1` [Compound 16], in that order: 13%, 12%, 4% and 19%.
For `CCc1c(O)cc(O)c(C(=O)c2ccc(OC)cc2)c1CC(=O)N1CCN(c2ccccc2C#N)CC1` [Compound 17], in that order: 16%, 10%, 4% and 16%.
With `CCc1c(O)cc(O)c(C(=O)c2ccc(OC)cc2)c1CC(=O)N1CCN(c2ncccn2)CC1` [Compound 32], in data set [1], the “Viability of tumor cells (% viability), Human T-cell lymphoma Karpas-299 cells” value is listed as 15%. Besides, in data set [2], the “Viability of tumor cells (% viability), Human mammary cancer BT-474 cells” value came out at 13%. Moreover, the “Viability of tumor cells (% viability), Human chronic myelocytic leukemia K562 cells” value in data set [3] is recorded as 4%. Also, the “Viability of tumor cells (% viability), Human lung cancer NCI-H596 cells” value in data set [4] came to 15%.
With `CCc1c(O)cc(O)c(C(=O)c2ccc(OC)cc2)c1CC(=O)N(CCO)CCOC` [Compound 33], in data set [1], the “Viability of tumor cells (% viability), Human T-cell lymphoma Karpas-299 cells” value is 14%. Also, the “Viability of tumor cells (% viability), Human mammary cancer BT-474 cells” value in data set [2] was 13%. The “Viability of tumor cells (% viability), Human chronic myelocytic leukemia K562 cells” value in data set [3] is listed as 4%. Further, the “Viability of tumor cells (% viability), Human lung cancer NCI-H596 cells” value in data set [4] came out at 20%.
On to `CCc1c(O)cc(O)c(C(=O)c2ccc(OC)cc2)c1CC(=O)N1CCc2cc(OC)c(OC)cc2C1` [Compound 38], for which the “Viability of tumor cells (% viability), Human T-cell lymphoma Karpas-299 cells” value in data set [1] was 14%. Further, in data set [2], the “Viability of tumor cells (% viability), Human mammary cancer BT-474 cells” value is listed as 13%. Also, the “Viability of tumor cells (% viability), Human chronic myelocytic leukemia K562 cells” value in data set [3] stood at 4%. Also, the “Viability of tumor cells (% viability), Human lung cancer NCI-H596 cells” value in data set [4] turned out to be 15%.
For `CCc1c(O)cc(O)c(C(=O)c2ccc(OC)c(OC)c2)c1CC(=O)N1CCN(c2ccccc2)CC1` [Compound 41], in that order: 19%, 14%, 4% and 12%.
In the same order, the values of `CCc1c(O)cc(O)c(C(=O)c2ccc(OC)c(OC)c2)c1CC(=O)N(CCO)CCOC` [Compound 56] are 14%, 13%, 5% and 20%.
For `CCc1c(O)cc(O)c(C(=O)c2ccc(OC)cc2)c1CC(=O)N1CCC(CO)CC1` [Compound 61], in that order: 13%, 12%, 5% and 25%.
With `CCc1c(O)cc(O)c(C(=O)c2ccc(OC)cc2)c1CC(=O)N(CCO)Cc1ccco1` [Compound 69], the “Viability of tumor cells (% viability), Human T-cell lymphoma Karpas-299 cells” value in data set [1] turned out to be 14%. Further, in data set [2], the “Viability of tumor cells (% viability), Human mammary cancer BT-474 cells” value worked out at 13%. Further, the “Viability of tumor cells (% viability), Human chronic myelocytic leukemia K562 cells” value in data set [3] came out at 4%. Besides, the “Viability of tumor cells (% viability), Human lung cancer NCI-H596 cells” value in data set [4] is given as 15%.
In the case of `CCc1c(O)cc(O)c(C(=O)c2ccc(OC(F)(F)F)cc2)c1CC(=O)N(CCO)CCOC` [Compound 88], the “Viability of tumor cells (% viability), Human T-cell lymphoma Karpas-299 cells” value in data set [1] stood at 16%. In addition, the “Viability of tumor cells (% viability), Human mammary cancer BT-474 cells” value in data set [2] amounted to 13%. For the same compound, the “Viability of tumor cells (% viability), Human chronic myelocytic leukemia K562 cells” value in data set [3] is given as 4%. Further, the “Viability of tumor cells (% viability), Human lung cancer NCI-H596 cells” value in data set [4] is given as 14%.
In the same order, the values of `CCc1c(O)cc(O)c(C(=O)c2ccc(OC(F)F)cc2)c1CC(=O)N(CCO)CCOC` [Compound 91] are 16%, 13%, 4% and 14%.
In the same order, the values of `CCc1c(O)cc(O)c(C(=O)c2ccc(SC)cc2)c1CC(=O)N(CCO)CCOC` [Compound 95] are 15%, 13%, 4% and 14%.
For `CCc1c(O)cc(O)c(C(=O)c2ccc(O)c(OC)c2)c1CC(=O)N(CCOC)CCOC` [Compound 106], the “Viability of tumor cells (% viability), Human T-cell lymphoma Karpas-299 cells” value in data set [1] is on record as 13%. In addition, the “Viability of tumor cells (% viability), Human mammary cancer BT-474 cells” value in data set [2] is on record as 12%. Moreover, the “Viability of tumor cells (% viability), Human chronic myelocytic leukemia K562 cells” value in data set [3] is given as 4%. Further, the “Viability of tumor cells (% viability), Human lung cancer NCI-H596 cells” value in data set [4] was determined as 12%.
Turning to `CCc1c(O)cc(O)c(C(=O)c2ccc(S(C)(=O)=O)cc2)c1CC(=O)N(CCOC)CCOC` [Compound 107], the “Viability of tumor cells (% viability), Human T-cell lymphoma Karpas-299 cells” value in data set [1] is recorded as 14%. The “Viability of tumor cells (% viability), Human mammary cancer BT-474 cells” value in data set [2] is reported as 13%. The “Viability of tumor cells (% viability), Human chronic myelocytic leukemia K562 cells” value in data set [3] was determined as 5%. For the same compound, the “Viability of tumor cells (% viability), Human lung cancer NCI-H596 cells” value in data set [4] was 16%.
In the same order, the values of `CCOc1ccc(C(=O)c2c(O)cc(O)c(CC)c2CC(=O)N(CCO)CCOC)cc1` [Compound 122] are 12%, 12%, 4% and 15%.
